Assay results taken from ChEMBL document CHEMBL5214933, “Discovery of Selenium-Containing STING Agonists as Orally Available Antitumor Agents” (J Med Chem, 2022).
Values after ≈ are worked out from the molar mass of the structure shown. Active and inactive are the calls of the source. No cut-off for these calls is given here.

What was measured:
[1] = Lipophilicity, logP of compound by RP-HPLC analysis; type: physicochemical
hERG = hERG (Homo sapiens, UniProt Q12809); experiment: Inhibition of hERG expressed in HEK293 cells at 10 uM incubated for 5 mins by QPatch automated patch-clamp technique relative to control; type: toxicity, cell-based; details: HEK293 cells that express hERG
[2] = test system: Stimulator of interferon genes protein (Homo sapiens), Q86WV6 [UNDEFINED MUTATION]; experiment: Binding affinity to recombinant human STING AQ variant expressed in Escherichia coli BL21 (DE3) assessed as thermal stabilization by measuring change in melting temperature at 0.1 mM incubated for 30 mins by SYPRO orange dye based differential scanning fluorimetry assay
[3] = target: T1, Stimulator of interferon genes protein (Homo sapiens, UniProt Q86WV6); experiment: Agonist activity at STING in human THP-1 cells harboring IRF-inducible luciferase reporter construct assessed as fold change in ISG signalling at 20 uM incubated for 12 hrs by Quanti-luc reagent based assay relative to control; type: cell-based; details: filed as agonist
Target sequence in this assay (Q86WV6 whole entry): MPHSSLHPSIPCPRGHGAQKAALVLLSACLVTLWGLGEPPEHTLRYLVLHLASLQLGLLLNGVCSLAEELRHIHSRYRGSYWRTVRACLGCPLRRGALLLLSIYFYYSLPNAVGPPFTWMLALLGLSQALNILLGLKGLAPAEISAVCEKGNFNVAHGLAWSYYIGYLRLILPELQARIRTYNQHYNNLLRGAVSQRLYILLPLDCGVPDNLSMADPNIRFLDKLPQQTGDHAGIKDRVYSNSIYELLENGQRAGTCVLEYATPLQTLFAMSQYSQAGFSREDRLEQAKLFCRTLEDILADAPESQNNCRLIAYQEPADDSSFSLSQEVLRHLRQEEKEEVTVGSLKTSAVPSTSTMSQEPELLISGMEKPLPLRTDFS

4T1 = experiment: Antitumor activity against mouse 4T1 cells implanted in naive BALB/c mouse assessed as increase in Ki67-positive CD4 T cells in tumor at 20 mg/kg, po administered once every 5 days by FACS analysis (reference value: 4.4%); type: functional; details: time 5 day
[4] = Permeability of the compound in PBS buffer incubated for 5 hrs by PAMPA-based LC-MS/MS analysis; type: ADME; details: read-out: permeability
[5] = Clearance in Sprague-Dawley rat at 50 mg/kg, po measured for 1440 mins by LC-MS/MS analysis; type: ADME, organism-based; details: in vivo
[6] = Stability in human plasma assessed as interconversion into (S)-4-(5,6-Dimethoxybenzo[b]selenophen-2-yl)-2-ethyl-4-oxobutanoic acid incubated for 24 hrs by normal-phase HPLC analysis; type: ADME, cell-free
[7] = Stability in rat liver microsomes assessed as parent compound remaining at 1 uM incubated for 2 hrs in presence of NADPH by LC-MS/MS analysis; type: ADME, Microsome; details: read-out: Stability
Mus musculus [8] = experiment: Immunostimulatory activity in naive […] mouse implanted with mouse MC38 cells assessed as increase in NKT cells in spleen at 30 mg/kg, po by FACS analysis; type: functional, organism-based; details: MC-38
[9] = AUC (0 to infinity) in Sprague-Dawley rat at 50 mg/kg, po measured for 1440 mins by LC-MS/MS analysis; type: ADME, organism-based; set-up: time 1440 min, dose 50 mg/kg, route po; details: in vivo
[10] = Stability in human plasma assessed as parent compound remaining at 1 uM incubated for 24 hrs in presence of NADPH by LC-MS/MS analysis; type: ADME, cell-free; details: read-out: Stability
[11] = target: T1, Stimulator of interferon genes protein; experiment: Agonist activity at STING in cGAS knockout human THP-1 cells harboring IRF-inducible luciferase reporter construct assessed as increase in relative fluorescence unit incubated for 12 hrs by Quanti-luc reagent based assay; type: cell-based
Target sequence in this assay (Q86WV6 whole entry): as above

[12] = test system: Stimulator of interferon genes protein (Homo sapiens), Q86WV6 [UNDEFINED MUTATION]; experiment: Binding affinity to recombinant human STING H232 variant expressed in Escherichia coli BL21 (DE3) assessed as thermal stabilization by measuring change in melting temperature at 2 mM incubated for 30 mins by SYPRO orange dye based differential scanning fluorimetry assay
[13] = target: T2, Stimulator of interferon genes protein (Mus musculus) (UniProt Q3TBT3); experiment: Agonist activity at STING in mouse MEF cells assessed as increase in CXCL10 mRNA expression at 10 uM measured after 3 hrs by qRT-PCR analysis; type: cell-based; details: filed as agonist
T2 sequence (whole entry): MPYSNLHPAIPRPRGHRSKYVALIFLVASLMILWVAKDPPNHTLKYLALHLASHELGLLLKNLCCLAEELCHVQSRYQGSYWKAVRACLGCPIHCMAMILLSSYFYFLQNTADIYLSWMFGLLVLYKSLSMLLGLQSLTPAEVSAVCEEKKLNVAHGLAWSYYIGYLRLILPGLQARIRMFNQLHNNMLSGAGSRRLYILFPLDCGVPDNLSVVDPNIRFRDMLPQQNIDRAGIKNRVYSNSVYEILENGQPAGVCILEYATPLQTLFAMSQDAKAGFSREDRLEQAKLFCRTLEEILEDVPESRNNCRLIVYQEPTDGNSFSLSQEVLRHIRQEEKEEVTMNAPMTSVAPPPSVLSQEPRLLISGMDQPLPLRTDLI

[14] = Oral bioavailability in Sprague-Dawley rat at 50 mg/kg measured for 1440 mins by LC-MS/MS analysis; type: ADME, organism-based; details: in vivo
[15] = target: T2, Stimulator of interferon genes protein (Mus musculus); experiment: Agonist activity at STING in mouse RAW264.7 cells harboring IRF-inducible luciferase reporter construct assessed as increase in […] mRNA expression at 10 to 50 uM measured after 1 hr by qRT-PCR analysis; type: cell-based; details: filed as agonist, dose 10-50 µM
[16] = Aqueous solubility of compound at 3 mg incubated for 24 hrs under shaking condition by RP-HPLC analysis; type: physicochemical; details: water
Mus musculus [17] = experiment: Immunostimulatory activity in naive […] mouse implanted with mouse MC38 cells assessed as increase in T cells in spleen at 30 mg/kg, po by FACS analysis; type: functional, organism-based; details: MC-38
[18] = Volume of distribution at steady state in Sprague-Dawley rat at 50 mg/kg, po measured for 1440 mins by LC-MS/MS analysis; type: ADME, organism-based; details: in vivo, 24 h
[19] = Cmax in Sprague-Dawley rat at 50 mg/kg, po measured for 1440 mins by LC-MS/MS analysis; type: ADME, organism-based; set-up: time 1440 min, dose 50 mg/kg, route po; details: in vivo
CT26 = experiment: Immunological memory derived antitumor activity against mouse CT26 cells implanted in naive BALB/c mouse assessed as suppression of tumor growth at 20 mg/kg, po administered once every 5 days for 23 days starting from day 8 followed by reinoculation of cells into mouse on day 61 and measured for 50 days; type: functional; details: time 50 day
Mus musculus [20] = experiment: Immunostimulatory activity in naive […] mouse implanted with mouse MC38 cells assessed as increase in CD69-positive CD8 T cells in spleen at 30 mg/kg, po by FACS analysis (reference value: 8.9 %); type: functional, MC-38
[21] = Half life in Sprague-Dawley rat at 5 mg/kg, iv measured for 1440 mins by LC-MS/MS analysis; type: ADME, organism-based; details: in vivo
[22] = target: T1, Stimulator of interferon genes protein; experiment: Agonist activity at STING in human THP-1 cells assessed as increase in CXCL10 mRNA expression at 10 uM measured after 3 hrs by qRT-PCR analysis; type: cell-based; details: filed as agonist
Target sequence in this assay (Q86WV6 whole entry): as the sequence (Q86WV6 whole entry) above

[23] = target: T1, Stimulator of interferon genes protein; experiment: Binding affinity to recombinant human STING H232 variant expressed in Escherichia coli BL21 (DE3) assessed as dissociation constant by multicycle SPR analysis
Target sequence in this assay (Q86WV6 whole entry, looked up, stated change not applied): as the sequence (Q86WV6 whole entry) above

[24] = target: T1, Stimulator of interferon genes protein; experiment: Binding affinity to recombinant human STING H232 variant expressed in Escherichia coli BL21 (DE3) assessed as dissociation constant by single cycle SPR analysis
Target sequence in this assay (Q86WV6 whole entry, looked up, stated change not applied): as the sequence (Q86WV6 whole entry) above

[25] = target: T1, Stimulator of interferon genes protein; experiment: Agonist activity at STING in human THP-1 cells harboring IRF-inducible luciferase reporter construct assessed as increase in relative fluorescence unit incubated for 12 hrs by Quanti-luc reagent based assay; type: cell-based
Target sequence in this assay (Q86WV6 whole entry): as the sequence (Q86WV6 whole entry) above

[26] = Volume of distribution at steady state in Sprague-Dawley rat at 5 mg/kg, iv measured for 1440 mins by LC-MS/MS analysis; type: ADME, organism-based; details: in vivo, read-out: Vdss
[27] = target: T1, Stimulator of interferon genes protein; experiment: Agonist activity at STING in human THP-1 cells harboring IRF-inducible luciferase reporter construct assessed as increase in TBK1 phosphorylation at 50 uM measured after 1 hrs by Western blot analysis; type: cell-based; details: filed as agonist
Target sequence in this assay (Q86WV6 whole entry): as the sequence (Q86WV6 whole entry) above

Stimulator of interferon genes protein (Homo sapiens), Q86WV6 [UNDEFINED MUTATION], sequence (Q86WV6 whole entry, looked up, stated change not applied): as the sequence (Q86WV6 whole entry) above
hERG, sequence (Q12809 whole entry): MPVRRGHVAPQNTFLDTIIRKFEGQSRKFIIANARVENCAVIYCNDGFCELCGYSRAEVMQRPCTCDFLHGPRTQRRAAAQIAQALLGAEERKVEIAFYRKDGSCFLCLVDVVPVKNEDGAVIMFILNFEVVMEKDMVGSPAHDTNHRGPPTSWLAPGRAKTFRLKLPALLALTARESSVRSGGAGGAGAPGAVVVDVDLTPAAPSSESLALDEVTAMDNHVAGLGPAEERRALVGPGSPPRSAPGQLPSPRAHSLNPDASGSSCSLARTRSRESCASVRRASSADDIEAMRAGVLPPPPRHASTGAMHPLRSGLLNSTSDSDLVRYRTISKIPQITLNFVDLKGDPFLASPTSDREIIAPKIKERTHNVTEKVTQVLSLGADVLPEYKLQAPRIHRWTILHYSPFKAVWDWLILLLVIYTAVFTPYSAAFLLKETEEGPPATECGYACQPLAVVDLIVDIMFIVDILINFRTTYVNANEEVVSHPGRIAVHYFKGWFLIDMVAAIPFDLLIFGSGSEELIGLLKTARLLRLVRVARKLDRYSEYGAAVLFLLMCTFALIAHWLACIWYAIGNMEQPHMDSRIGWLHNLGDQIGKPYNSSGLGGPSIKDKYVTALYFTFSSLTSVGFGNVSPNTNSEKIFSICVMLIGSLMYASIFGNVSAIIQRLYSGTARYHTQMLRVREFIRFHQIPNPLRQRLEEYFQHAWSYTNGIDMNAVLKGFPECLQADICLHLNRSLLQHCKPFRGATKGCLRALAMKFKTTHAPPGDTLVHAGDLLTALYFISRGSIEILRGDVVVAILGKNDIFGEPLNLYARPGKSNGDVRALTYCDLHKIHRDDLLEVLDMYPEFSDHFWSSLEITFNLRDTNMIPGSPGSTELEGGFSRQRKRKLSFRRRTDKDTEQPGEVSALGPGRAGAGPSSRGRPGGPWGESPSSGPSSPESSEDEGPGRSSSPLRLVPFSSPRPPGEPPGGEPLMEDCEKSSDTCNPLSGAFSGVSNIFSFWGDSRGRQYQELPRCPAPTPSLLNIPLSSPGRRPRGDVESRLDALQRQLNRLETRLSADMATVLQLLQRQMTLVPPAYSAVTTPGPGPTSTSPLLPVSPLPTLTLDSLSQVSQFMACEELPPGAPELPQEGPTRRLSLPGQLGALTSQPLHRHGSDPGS

**Q.** For `CC[C@H](CC(=O)c1cc2cc(OC)c(OC)cc2[se]1)C(=O)O`, which logP [1] is on record?
**A.** 2.4

**Q.** What about the inhibition at 5 min, 10 µM (hERG) of the same compound?
**A.** -0.7%

**Q.** And the ΔTm [2]?
**A.** 30.3 °C

**Q.** What about the fold change (FC) [3] of the same compound?
**A.** 37

**Q.** What about the Activity (4T1) of the same compound?
**A.** 25.4%

**Q.** What about the Papp at 5 h [4] of the same compound?
**A.** 2.04 ×10⁻⁶ cm/s

**Q.** And the CL/F [5]?
**A.** 2.67 mL/min/kg

**Q.** What about the Stability [6] of the same compound?
**A.** Stable

**Q.** What about the remaining at 2 h, 1 µM [7] of the same compound?
**A.** 100%

**Q.** And the Activity (Mus musculus [8])?
**A.** Active

**Q.** What about the AUC(0-inf) [9] of the same compound?
**A.** 316 µg·h/mL

**Q.** What about the remaining at 24 h, 1 µM [10] of the same compound?
**A.** 98%

**Q.** And the EC50 [11]?
**A.** 5.19 µM

**Q.** What about the ΔTm [12] of the same compound?
**A.** 7.4 °C

**Q.** What about the Activity [13] of the same compound?
**A.** Active

**Q.** And the bioavailability [14]?
**A.** 107%

**Q.** And the Activity [15]?
**A.** Active

**Q.** What about the solubility thermodynamic at 24 h [16] of the same compound?
**A.** 30 µg/mL (≈ 81.2 µM)

**Q.** What about the Activity (Mus musculus [17]) of the same compound?
**A.** Active

**Q.** What about the Vdss [18] of the same compound?
**A.** 0.38 L/kg

**Q.** And the Cmax [19]?
**A.** 58.2 µg/mL

**Q.** What about the Activity (CT26) of the same compound?
**A.** 100%

**Q.** And the Activity (Mus musculus [20])?
**A.** 94.2%

**Q.** And the half-life [21]?
**A.** 1.04 h

**Q.** What about the Activity [22] of the same compound?
**A.** Active

**Q.** What about the Kd [23] of the same compound?
**A.** 58 µM

**Q.** What about the Kd [24] of the same compound?
**A.** 23 µM

**Q.** What about the EC50 [25] of the same compound?
**A.** 9.24 µM

**Q.** What about the Vd [26] of the same compound?
**A.** 0.26 L/kg

**Q.** And the Activity [27]?
**A.** Active
